Results reported in the NIST ThermoML archive (doi:10.1016/j.jct.2007.04.005).
Numbers after ± are expanded uncertainties.

Test: xn = mol fraction of the nth substance listed
Settings: 318.15 K, Liquid

CCCCCCCCC [nonane] + C1CCCCC1
mass density [kg/m3]
Settings | x2 = 0 | x2 = 0.09303 | x2 = 0.2009 | x2 = 0.3051 | x2 = 0.417 | x2 = 0.512 | x2 = 0.5996 | x2 = 0.7052 | x2 = 0.7993 | x2 = 0.9039
18340 kPa | – | – | – | – | – | – | – | 745.3 ± 1.3 | 752.1 ± 1.2 | 761.1 ± 1.2
20370 kPa | 715 ± 1.6 | 717.9 ± 1.5 | 721.8 ± 1.5 | 725.9 ± 1.5 | 730.6 ± 1.5 | 735.2 ± 1.4 | 740.2 ± 1.4 | 746.9 ± 1.4 | 753.7 ± 1.3 | 762.7 ± 1.3
22390 kPa | 716.5 ± 1.7 | 719.4 ± 1.6 | 723.3 ± 1.6 | 727.4 ± 1.6 | 732.2 ± 1.5 | 736.7 ± 1.5 | 741.8 ± 1.5 | 748.4 ± 1.4 | 755.3 ± 1.4 | 764.3 ± 1.3
24420 kPa | 717.9 ± 1.7 | 720.8 ± 1.7 | 724.8 ± 1.7 | 728.8 ± 1.6 | 733.6 ± 1.6 | 738.2 ± 1.6 | 743.3 ± 1.5 | 749.9 ± 1.5 | 756.8 ± 1.5 | 765.8 ± 1.4
26450 kPa | 719.4 ± 1.8 | 722.3 ± 1.8 | 726.2 ± 1.8 | 730.3 ± 1.7 | 735.1 ± 1.7 | 739.7 ± 1.6 | 744.8 ± 1.6 | 751.4 ± 1.6 | 758.3 ± 1.5 | 767.4 ± 1.5
28470 kPa | 720.8 ± 1.9 | 723.6 ± 1.9 | 727.6 ± 1.8 | 731.7 ± 1.8 | 736.5 ± 1.8 | 741.1 ± 1.7 | 746.2 ± 1.7 | 752.9 ± 1.6 | 759.8 ± 1.6 | 768.9 ± 1.5
29490 kPa | 721.4 ± 1.9 | 724.3 ± 1.9 | 728.3 ± 1.9 | 732.4 ± 1.8 | 737.2 ± 1.8 | 741.8 ± 1.8 | 746.9 ± 1.7 | 753.6 ± 1.7 | 760.5 ± 1.6 | 769.6 ± 1.6
30500 kPa | 722.1 ± 2 | 725 ± 1.9 | 729 ± 1.9 | 733.1 ± 1.9 | 737.9 ± 1.8 | 742.5 ± 1.8 | 747.6 ± 1.8 | 754.3 ± 1.7 | 761.2 ± 1.7 | 770.3 ± 1.6
32530 kPa | 723.4 ± 2.1 | 726.4 ± 2 | 730.4 ± 2 | 734.4 ± 1.9 | 739.3 ± 1.9 | 743.8 ± 1.9 | 749 ± 1.8 | 755.7 ± 1.8 | 762.6 ± 1.7 | 771.7 ± 1.7
34550 kPa | 724.8 ± 2.1 | 727.7 ± 2.1 | 731.8 ± 2.1 | 735.8 ± 2 | 740.6 ± 2 | 745.2 ± 1.9 | 750.4 ± 1.9 | 757.1 ± 1.8 | 764 ± 1.8 | 773.2 ± 1.7
36580 kPa | 726.1 ± 2.2 | 729 ± 2.2 | 733.1 ± 2.1 | 737.1 ± 2.1 | 742 ± 2 | 746.6 ± 2 | 751.7 ± 2 | 758.5 ± 1.9 | 765.4 ± 1.8 | 774.5 ± 1.8
38600 kPa | 727.5 ± 2.3 | 730.4 ± 2.3 | 734.5 ± 2.2 | 738.5 ± 2.2 | 743.3 ± 2.1 | 748 ± 2.1 | 753.1 ± 2 | 759.9 ± 2 | 766.8 ± 1.9 | 776 ± 1.8
39620 kPa | 728.1 ± 2.3 | 731 ± 2.3 | 735.1 ± 2.2 | 739.1 ± 2.2 | 744 ± 2.2 | 748.6 ± 2.1 | 753.8 ± 2.1 | 760.6 ± 2 | 767.5 ± 1.9 | 776.7 ± 1.9
